PMC11765717, “In Vitro Insights into Bacteriocin-Mediated Modulation of Chicken Cecal Microbiota” (International Journal of Molecular Sciences, 2025)
Values after ≈ are worked out from the molar mass of the structure shown. Read-outs that look alike come from different tables or passages of the source. Positions of bridges follow the written chain, without caps; N, C: chain ends. Residues, ends and D or L forms follow the SMILES beside them.

Legend:
[1] = test system: S. enterica; parameters: method as in PMID 35543514; settings: sensitive strain S. enterica; ref [63]; cited from earlier work
Source text: Table 1 Minimum inhibitory concentration (MIC) of the antimicrobial compounds tested (provided in µg/mL and in µmol/L) and residual activities over time in the cecal fermentation medium, after the introduction of the compounds at 25 (top) or 250 times (bottom) the minimal inhibitory concentration (MIC).

[2] = test system: chicken cecal microbiota; assay: Batch fermentation of chicken cecal microbiota, 16S rRNA gene sequencing; type: cell-based, broiler chickens; settings: for Impact on genera / microbiota composition, in words: 24 h of culture; for Beta diversity (PCoA of weighted Unifrac), in words: 24 h of fermentation; for Effect on bacterial classes, in words: 12 h of cecal fermentation; for Abundance of Clostridia, in words: 25 vs 250 x MIC
[3] = test system: Salmonella enterica subsp. enterica serotype Newport ATCC 6962
[4] = test system: chicken cecal microbiota; assay: Short-chain fatty acids in batch fermentation supernatant; type: cell-based, broiler chickens; settings: 24 h; for Acetate production, in words: 250 times the MIC
[5] = test system: Salmonella enterica subsp. enterica serotype Newport ATCC 6962; assay: Residual activity in cecal fermentation medium, agar well diffusion; settings: over the 24 h of fermentation; agar diffusion tests
[6] = test system: Streptococcus pyogenes RBL4; assay: as above; type: in vitro ADME; settings: over the 24 h of fermentation; based on inhibition diameters
Procedure: Sterile Viande Levure (VL) medium (16 mL in 50 mL penicillin bottles), supplemented with Tween 80, bile salts, minerals, vitamins, porcine mucin (2.0 g/L), fructo-oligosaccharide (2.5 g/L), and citrus pectin (2.5 g/L), as described previously, and adjusted to pH 6 with 5 M NaOH, was inoculated with […] fecal slurry (10% inoculum, w/v). The antimicrobial compound was added in a volume of 1 mL to obtain 25 or 250 times the minimal inhibitory concentration (Table 1).
To ensure anaerobic conditions, the bottles were inoculated and sealed in an oxygen-free chamber. They were incubated at 41 °C and 80 rpm on an orbital shaker for up to 24 h. For each experimental treatment, samples were collected at 0, 12, and 24 h and kept at −80 °C until analysis.
The inhibitory activity of each antimicrobial agent was assessed qualitatively in terms of inhibition zones around agar wells. Briefly, 80 μL of sample was added to wells in pour plates (25 mL) seeded with 250 µL of overnight culture of indicator strain. Following 18 h of incubation at the appropriate temperature, inhibition diameters were measured. Photographs were taken using ChemiDoc XRS (Bio-Rad, Hercules, CA, USA).

[7] = test system: C. perfringens; settings: sensitive strain C. perfringens; ref [62]; cited from earlier work
[8] = test system: L. ivanovii; parameters: method as in PMID 35170996; settings: sensitive strain L. ivanovii; ref [64]; cited from earlier work
[9] = test system: Listeria ivanovii HPB28; assay: Residual activity in cecal fermentation medium, agar well diffusion; settings: over the 24 h of fermentation; agar diffusion tests

O=C(O)c1cn(C2CC2)c2cc(N3CCNCC3)c(F)cc2c1=O [Ciprofloxacin]
MIC (µM) [1]: 0.60 µM (≈ 0.199 µg/mL) | MIC (µg/mL) [1]: 0.19 µg/mL (≈ 0.573 µM) | Impact on genera / microbiota composition, in words [2]: impacted Gram-positive (Clostridia, Enterococcus and Streptococcus) as well as Gram-negative bacteria (Escherichia/Shigella and Gallibacterium) | Genera Enterococcus, in words ([2]; after 24 h): reduced | Residual Activity 0 h [3]: +++ +++

CC[C@H](C)[C@H](NC(=O)CNC(=O)[C@@H](NC(=O)[C@H](Cc1ccccc1)NC(=O)[C@H](Cc1ccc(O)cc1)NC(=O)[C@@H]1CCC(=O)NCC(=O)NCC(=O)N[C@@H](C)C(=O)NCC(=O)N[C@@H](Cc2cnc[nH]2)C(=O)N[C@@H](C(C)C)C(=O)N2CCC[C@H]2C(=O)N1)C(C)C)C(=O)NCC(=O)N[C@H](C(=O)N1CCC[C@H]1C(=O)N[C@H](C(=O)N[C@@H](CO)C(=O)N[C@@H](Cc1ccccc1)C(=O)N[C@@H](Cc1ccc(O)cc1)C(=O)NCC(=O)O)[C@@H](C)CC)[C@@H](C)O [Microcin J25] (GGAGHVPEYFVGIGTPISFYG-OH; lactam N-8)
Stability of inhibitory activity in batch fermentation, in words [3]: significant inhibitory activity at 24 h

CO[C@H]1/C=C/O[C@@]2(C)Oc3c(C)c(O)c4c(O)c(c(/C=N/N5CCN(C)CC5)c(O)c4c3C2=O)NC(=O)/C(C)=C\C=C\[C@H](C)[C@H](O)[C@@H](C)[C@@H](O)[C@@H](C)[C@H](OC(C)=O)[C@@H]1C [Rifampicin]
Acetate production, in words [4]: reached maximal ranges | MIC (µM) [1]: 0.47 µM (≈ 0.387 µg/mL) | MIC (µg/mL) [1]: 0.39 µg/mL (≈ 0.474 µM) | Relative abundance of Bacteroidia ([2]; 24 h, concentrations not assigned): 0.02 | Impact on genera / microbiota composition, in words [2]: mainly impacted the genera Bacteroides and Parabacteroides | Beta diversity (PCoA of weighted Unifrac), in words [2]: tended to cluster separately | Genera Enterococcus, in words ([2]; after 24 h, lowest concentration): reduced

CN(C)[C@@H]1C(O)=C(C(N)=O)C(=O)[C@@]2(O)C(O)=C3C(=O)c4c(O)cccc4[C@@](C)(O)[C@H]3C[C@@H]12 [Tetracycline]
Impact on genera / microbiota composition, in words [2]: mainly affected the Gram-negative bacteria Gallibacterium and the Gram-positive bacteria Phascolarctobacterium | Genera Enterococcus, in words ([2]; after 24 h): reduced | Residual Activity 6 h [3]: +++ +++ | Stability of inhibitory activity in batch fermentation, in words [5]: remained highly active

Bacitracin
Stability of inhibitory activity in batch fermentation, in words [6]: least stable | MIC [7]: 1.50 µg/mL | Acetate production, in words [4]: reached maximal ranges | Butyrate levels, in words ([4]; UHPLC-UV 210 nm): significant decrease | Effect on bacterial classes, in words [2]: dose-dependent effects | Impact on genera / microbiota composition, in words [2]: mainly impacted Streptococcus and Ruminococcus together with different Clostridia (Lachnoclostridium, Erysipelatoclostridium, and Oscillibacter), while promoting the genera Escherichia/Shigella

Colistin
Butyrate levels, in words ([4]; highest concentration): tended to decrease | MIC (µM) [1]: 0.69 µM | MIC (µg/mL) [1]: 0.80 µg/mL | Relative abundance of Escherichia, in words [2]: dropped | Abundance of Clostridia, in words [2]: dose-dependent decrease | Relative abundance of Gammaproteobacteria ([2]; 25× MIC): 0.03 | Effect on bacterial classes, in words [2]: dose-dependent effects | Impact on genera / microbiota composition, in words [2]: strongly impaired Escherichia/Shigella together with other Gram-negative bacteria (Gallibacterium and Butyricimonas) | Alpha diversity (Shannon entropy), in words ([2]; after 12 h, compared to bacitracin, rifampicin, tetracycline, MccE492 and nisin): lower alpha diversity | Alpha diversity (Shannon entropy), in words ([2]; after 24 h): lowest alpha diversity | Residual Activity 0 h [3]: ++ ++ | Residual Activity 6 h [3]: ++ ++ | Residual Activity 12 h [3]: ++ ++ | Residual Activity 24 h [3]: ++ ++

Nisin Z
MIC (µM) [8]: 0.18 µM | MIC (µg/mL) [8]: 1.56 µg/mL | Acetate production, in words [4]: reached maximal ranges | Butyrate levels, in words ([4]; lowest concentration): tended to decrease | Abundance of Clostridia, in words [2]: dose-dependent decrease | Effect on bacterial classes, in words [2]: dose-dependent effects | Impact on genera / microbiota composition, in words [2]: had the most impact on microbiota composition | Beta diversity (PCoA of weighted Unifrac), in words [2]: tended to cluster separately | Genera Enterococcus, in words ([2]; after 24 h): reduced | Alpha diversity (Shannon entropy), in words ([2]; t0, as compared to control): highest diversity

Pediocin PA-1 (M31L) (KYYGNGVTCGKHSCSVDWGKATTCIINNGALAWATGGHQGNHKC; UniProt P29430 19-62, looked up, variant M31L) [44 aa linear peptide containing two disulfide bridges, M31L variant, prepared by solid-phase peptide synthesis]
Stability of inhibitory activity in batch fermentation, in words [9]: weak activity | Butyrate levels, in words ([4]; lowest concentration): tended to decrease | Effect on bacterial classes, in words [2]: dose-dependent effects | Impact on genera / microbiota composition, in words [2]: moderate effect | Genera Enterococcus, in words ([2]; after 24 h, highest concentration): reduced

B1: Microcin E492 (peptide, UniProt Q9Z4N4 16-99, looked up)
Microcin E492: GETDPNTQLLNDLGNNMAWGAALGAPGGLGSAALGAAGGALQTVGQGLIDHGPVNVPIPVLIGPSWNGSGSGYNSATSSSGSGS
notes: 84 aa siderophore peptide produced by Klebsiella pneumoniae, produced heterologously in E. coli MC4100
MIC (µM) [1]: 0.18 µM | MIC (µg/mL) [1]: 1.56 µg/mL | Impact on genera / microbiota composition, in words [2]: only minor effects | Genera Enterococcus, in words ([2]; after 24 h): reduced | Alteration in the relative abundance of the identified taxa, in words ([2]; class level): neither MccJ25 nor MccE492 induced a statistically significant alteration | Alpha diversity (Shannon entropy), in words ([2]; t0, as compared to control): highest diversity
